{"source": "patent US20220409569A1", "about": "“Cannabinoid Products with High Bioavailability” (The Chemist's Cabinet, LLC, priority 2019, published 2022)", "origin": "cited, not measured here", "conditions": "oral administration", "data": [{"smiles": "C=C(C)[C@@H]1CCC(C)=C[C@H]1c1c(O)cc(CCCCC)cc1O", "note": "[CBD, cannabidiol]", "values": [{"measurement": "bioavailability", "result": "~6", "unit": "%"}]}, {"smiles": "CCCCCc1cc(O)c2c(c1)OC(C)(C)[C@@H]1CCC(C)=C[C@@H]21", "note": "[THC, tetrahydrocannabinol]", "values": [{"measurement": "bioavailability", "result": "4%-12%"}]}]}
